Target: T1, SIRT1 (Homo sapiens, UniProt Q96EB6)
T1 sequence (Q96EB6 1-747): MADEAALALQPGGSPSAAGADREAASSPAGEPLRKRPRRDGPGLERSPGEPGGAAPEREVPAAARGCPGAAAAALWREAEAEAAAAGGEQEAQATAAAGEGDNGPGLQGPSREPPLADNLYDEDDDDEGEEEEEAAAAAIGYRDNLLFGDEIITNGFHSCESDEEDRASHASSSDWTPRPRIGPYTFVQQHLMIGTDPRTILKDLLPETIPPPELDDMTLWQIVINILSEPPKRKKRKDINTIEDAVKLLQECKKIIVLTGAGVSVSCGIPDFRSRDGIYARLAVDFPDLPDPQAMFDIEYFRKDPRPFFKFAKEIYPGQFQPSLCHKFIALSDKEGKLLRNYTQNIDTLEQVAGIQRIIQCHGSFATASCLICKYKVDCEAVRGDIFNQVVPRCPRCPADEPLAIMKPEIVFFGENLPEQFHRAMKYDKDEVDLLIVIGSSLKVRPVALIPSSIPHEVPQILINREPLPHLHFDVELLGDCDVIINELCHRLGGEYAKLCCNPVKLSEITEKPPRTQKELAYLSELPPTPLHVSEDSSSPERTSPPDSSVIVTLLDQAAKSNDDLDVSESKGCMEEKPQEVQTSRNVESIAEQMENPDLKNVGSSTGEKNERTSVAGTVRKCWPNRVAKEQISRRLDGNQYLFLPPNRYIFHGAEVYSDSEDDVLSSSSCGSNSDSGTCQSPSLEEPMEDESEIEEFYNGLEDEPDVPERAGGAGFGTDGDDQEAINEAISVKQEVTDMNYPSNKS
Experiment: Mass spectrometry based assay to identify modulators of SIRT1 activity (deacetylation of p53-based acetylated peptide)
Type: biochemical
Conditions: 10 nM SIRT1, 0.5 μM peptide substrate, 120 μM βNAD+, 25 minutes at 25° C.; for EC1.5 μM: SIRT1 activation

Row | % Fold Act. (percent maximum fold activation) | EC1.5 μM | Structure (SMILES)
1 | A (Fold activation>200%) | A (EC1.5<1.0 μM) | Cn1c(-c2cccc(C(F)(F)F)c2)nc2c(NC(=O)c3cccc(CN4CCOCC4)n3)cccc2c1=O [Compound 332]
2 | A (Fold activation>200%) | A (EC1.5<1.0 μM) | Cn1c(-c2cccc(C(F)(F)F)c2)nc2c(NC(=O)c3cccc(CN4CCCC4)n3)cccc2c1=O [Compound 333]
3 | A (Fold activation>200%) | B (EC1.5 1-25 μM) | Cn1c(-c2cccc(C(F)(F)F)c2)nc2c(NC(=O)c3cccnc3OCC(O)CO)cccc2c1=O (stereo not drawn) [Compound 334]
4 | A (Fold activation>200%) | A (EC1.5<1.0 μM) | Cn1c(-c2cccc(C(F)(F)F)c2)nc2c(NC(=O)c3cccc(OCC(O)CO)n3)cccc2c1=O (stereo not drawn) [Compound 335]
5 | A (Fold activation>200%) | A (EC1.5<1.0 μM) | Cn1c(-c2cccc(C(F)(F)F)c2)nc2c(NC(=O)c3cncc(N4CCOCC4)n3)cccc2c1=O [Compound 336]
6 | B (Fold Activation<200%) | C (EC1.5>25 μM) | Cn1c(-c2cccc(C(F)(F)F)c2)nc2c(NC(=O)c3cccc(N4CCCC4)c3)cccc2c1=O [Compound 337]
7 | A (Fold activation>200%) | A (EC1.5<1.0 μM) | Cn1c(-c2cccc(C(F)(F)F)c2)nc2c(NC(=O)c3cccc(CN4CCOCC4)c3)cccc2c1=O [Compound 338]
8 | B (Fold Activation<200%) | C (EC1.5>25 μM) | Cn1c(-c2cccc(C(F)(F)F)c2)nc2c(NC(=O)C3CCC(=O)N3)cccc2c1=O (stereo not drawn) [Compound 339, N-(3-methyl-4-oxo-2-(3-(trifluoromethyl)phenyl)-3,4-dihydroquinazolin-8-yl)-5-oxopyrrolidine-2-carboxamide]
9 | B (Fold Activation<200%) | C (EC1.5>25 μM) | CN1C(=O)CCC1C(=O)Nc1cccc2c(=O)n(C)c(-c3cccc(C(F)(F)F)c3)nc12 (stereo not drawn) [Compound 340]
10 | A (Fold activation>200%) | A (EC1.5<1.0 μM) | Cn1c(-c2cccc(C(F)(F)F)c2)nc2c(NC(=O)c3cccc(N4CCOCC4)n3)cccc2c1=O [Compound 341]
11 | A (Fold activation>200%) | A (EC1.5<1.0 μM) | Cn1c(-c2cccc(C(F)(F)F)c2)nc2c(NC(=O)c3cccc(N4CCCC4)n3)cccc2c1=O [Compound 342]
12 | B (Fold Activation<200%) | C (EC1.5>25 μM) | CN1CCCCC1C(=O)Nc1cccc2c(=O)n(C)c(-c3cccc(C(F)(F)F)c3)nc12 (stereo not drawn) [Compound 343]
13 | A (Fold activation>200%) | A (EC1.5<1.0 μM) | Cn1c(-c2cccc(C(F)(F)F)c2)nc2c(C(=O)Nc3cccc(CN4CCOCC4)n3)cccc2c1=O [Compound 344]
14 | A (Fold activation>200%) | A (EC1.5<1.0 μM) | Cn1c(-c2cccc(C(F)(F)F)c2)nc2c(C(=O)Nc3cccc(CN4CC[C@@H](F)C4)n3)cccc2c1=O [Compound 345]
15 | A (Fold activation>200%) | A (EC1.5<1.0 μM) | Cn1c(-c2cccc(C(F)(F)F)c2)nc2c(C(=O)Nc3ccc(CN4CC[C@H](F)C4)cn3)cccc2c1=O [Compound 346]
16 | A (Fold activation>200%) | A (EC1.5<1.0 μM) | Cn1c(-c2cccc(C(F)(F)F)c2)nc2c(C(=O)Nc3ccnc(CN4CCNCC4)n3)cccc2c1=O [Compound 347]
17 | A (Fold activation>200%) | A (EC1.5<1.0 μM) | Cn1c(-c2cccc(C(F)(F)F)c2)nc2c(C(=O)Nc3cccc(CN4CCNCC4)n3)cccc2c1=O [Compound 348]
18 | A (Fold activation>200%) | A (EC1.5<1.0 μM) | Cn1c(-c2cccc(C(F)(F)F)c2)nc2c(C(=O)Nc3ccnc(N4CCCC4)c3)cccc2c1=O [Compound 349]
19 | B (Fold Activation<200%) | B (EC1.5 1-25 μM) | Cn1c(-c2cccc(C(F)(F)F)c2)nc2c(C(=O)Nc3cccc(N4CCCC4)n3)cccc2c1=O [Compound 350, 3-methyl-4-oxo-N-(6-(pyrrolidin-1-yl)pyridin-2-yl)-2-(3-(trifluoromethyl)phenyl)-3,4-dihydroquinazoline-8-carboxamide]
20 | A (Fold activation>200%) | A (EC1.5<1.0 μM) | Cn1c(-c2cccc(C(F)(F)F)c2)nc2c(C(=O)Nc3cccc(CN4CCCC4)n3)cccc2c1=O [Compound 351]

Row | % Fold Act. (percent maximum fold activation) | EC1.5 μM | Structure (SMILES)
21 | A (Fold activation>200%) | A (EC1.5<1.0 μM) | Cn1c(-c2cccc(C(F)(F)F)c2)nc2c(C(=O)Nc3cccc(CN4CC[C@H](F)C4)n3)cccc2c1=O [Compound 352]
22 | A (Fold activation>200%) | A (EC1.5<1.0 μM) | Cn1c(-c2cccc(C(F)(F)F)c2)nc2c(C(=O)Nc3cccc(OC[C@H](O)CO)n3)cccc2c1=O [Compound 353]
23 | A (Fold activation>200%) | A (EC1.5<1.0 μM) | Cn1c(-c2cccc(C(F)(F)F)c2)nc2c(C(=O)Nc3cncc(OCC(O)CO)n3)cccc2c1=O (stereo not drawn) [Compound 354]
24 | A (Fold activation>200%) | A (EC1.5<1.0 μM) | Cn1c(-c2cccc(C(F)(F)F)c2)nc2c(C(=O)Nc3ccnc(OCC(O)CO)n3)cccc2c1=O (stereo not drawn) [Compound 355]
25 | A (Fold activation>200%) | A (EC1.5<1.0 μM) | Cn1c(-c2cccc(C(F)(F)F)c2)nc2c(C(=O)Nc3cccc(OC[C@@H](O)CO)n3)cccc2c1=O [Compound 356]
26 | A (Fold activation>200%) | A (EC1.5<1.0 μM) | Cn1c(-c2cccc(C(F)(F)F)c2)nc2c(C(=O)Nc3nc(CN4CCCC4)cs3)cccc2c1=O [Compound 357]
27 | A (Fold activation>200%) | B (EC1.5 1-25 μM) | Cn1c(-c2cccc(C(F)(F)F)c2)nc2c(C(=O)Nc3ncc(CN4CCCC4)s3)cccc2c1=O [Compound 358]
28 | A (Fold activation>200%) | B (EC1.5 1-25 μM) | Cn1c(-c2cccc(C(F)(F)F)c2)nc2c(C(=O)Nc3ccnc(CN4CCCC4)n3)cccc2c1=O [Compound 359]
29 | A (Fold activation>200%) | A (EC1.5<1.0 μM) | Cn1c(-c2cccc(C(F)(F)F)c2)nc2c(C(=O)Nc3cccc(OCC(O)CO)c3)cccc2c1=O (stereo not drawn) [Compound 360]
30 | B (Fold Activation<200%) | C (EC1.5>25 μM) | Cn1c(-c2cccc(C(F)(F)F)c2)nc2c(NS(=O)(=O)c3cccnc3)cccc2c1=O [Compound 361]
31 | B (Fold Activation<200%) | C (EC1.5>25 μM) | Cn1c(-c2cccc(C(F)(F)F)c2)nc2c(NS(=O)(=O)c3ccccn3)cccc2c1=O [Compound 362]
32 | A (Fold activation>200%) | A (EC1.5<1.0 μM) | Cn1c(-c2cccc(C(F)(F)F)c2)nc2c(C(=O)Nc3cccc(OC[C@H](O)CO)c3)cccc2c1=O [Compound 363]
33 | A (Fold activation>200%) | B (EC1.5 1-25 μM) | Cn1c(-c2cccc(C(F)(F)F)c2)nc2c(NC(=O)c3cccc(CN4CCCC4)c3)cccc2c1=O [Compound 364]
34 | A (Fold activation>200%) | B (EC1.5 1-25 μM) | Cn1c(-c2cccc(C(F)(F)F)c2)nc2c(NC(=O)C3CCCC(=O)N3)cccc2c1=O (stereo not drawn) [Compound 365]
35 | A (Fold activation>200%) | A (EC1.5<1.0 μM) | Cn1c(-c2cccc(C(F)(F)F)c2)nc2c(C(=O)Nc3nc(CN4CCNCC4)cs3)cccc2c1=O [Compound 366]
36 | A (Fold activation>200%) | A (EC1.5<1.0 μM) | CCc1nnc(NC(=O)c2cccc3c(=O)cc(-c4cccc(C(F)(F)F)c4)[nH]c23)s1 [Compound 400]
37 | A (Fold activation>200%) | A (EC1.5<1.0 μM) | O=C(Nc1ccccn1)c1cccc2c(=O)cc(-c3cccc(C(F)(F)F)c3)[nH]c12 [Compound 401, 4-oxo-N-(pyridin-2-yl)-2-(3-(trifluoromethyl)phenyl)-1,4-dihydroquinoline-8-carboxamide]
38 | A (Fold activation>200%) | A (EC1.5<1.0 μM) | O=C(Nc1ccncc1)c1cccc2c(=O)cc(-c3cccc(C(F)(F)F)c3)[nH]c12 [Compound 402]
39 | A (Fold activation>200%) | A (EC1.5<1.0 μM) | O=C(Nc1cnccn1)c1cccc2c(=O)cc(-c3cccc(C(F)(F)F)c3)[nH]c12 [Compound 403]
